Results as given in paper PMC3867265 (Science signaling, 2013).
Positions count from the first letter of the chain named. Names may count otherwise. “Also recorded” adds a separate entry of the source. Blank lines part the entries; values can stand above or below the molecule they belong to.

B1: mouse MT2-P95L mutant, Rluc8 and YFP fusion proteins (receptor, UniProt Q8CIQ6 1-364, looked up)
chain: MPENSSIPNCCEASGLAARPSWSGSAGARPPVTARAPWVAPMLSTVVVVTTAVDFVGNLLVILSVLRNRKLRNAGNLFVVSLALADLVIALYPYLLILVAIIRDGWVLGEAHCKASAFVMGLSVIGSVFNITAIAINRYCCICHSTTYHRVCSHWYTPIYISLVWLLTLVALVPNFFVGSLEYDPRIYSCTFIQTASTQYTAAVVAIHFLLPMAVVSFCYLRIWVLVLQARRKAKATRKLRLRPSDLRSFLTMFAVFVVFAICWAPLNCIGLAVAINPEAMALQVPEGLFVTSYFLAYFNSCLNAIVYGLLNQNFRREYKRILLAIWNTRRCIQHASKHCLTEERQGPTPPAARATVPVKEGAL
B2: mouse melatonin receptor type 2 (MT2), Rluc8 and YFP fusion proteins (receptor, UniProt Q8CIQ6 1-364, looked up)
chain: B1 chain with L95P
B3: mouse melatonin receptor type 1 (MT1), Rluc8 and YFP fusion proteins (receptor, UniProt Q61184 1-353, looked up)
chain: MKGNVSELLNATQQAPGGGEGGRPRPSWLASTLAFILIFTIVVDILGNLLVILSVYRNKKLRNSGNIFVVSLAVADLVVAVYPYPLVLTSILNNGWNLGYLHCQVSAFLMGLSVIGSIFNITGIAMNRYCYICHSLKYDKIYSNKNSLCYVFLIWMLTLIAIMPNLQTGTLQYDPRIYSCTFTQSVSSAYTIAVVVFHFIVPMIIVIFCYLRIWVLVLQVRRRVKPDNKPKLKPQDFRNFVTMFVVFVLFAICWAPLNLIGLIVASDPATMVPRIPEWLFVASYYLAYFNSCLNAIIYGLLNQNFRKEYKKIIVSLCTAKMFFVESSNEEADKIKCKPSPLIPNNNLIKVDSV

How the values were obtained:
MT1 [1] = target: T1, MT1 (Mus musculus, UniProt Q61184); assay: cell-based
MT1/MT2 heteromers [2] = target: T2, MT1/MT2 heteromers (Mus musculus, UniProt Q61184+Q8CIQ6); assay: cell-based
Target sequence in this assay (Q8CIQ6 whole entry, one chain of several): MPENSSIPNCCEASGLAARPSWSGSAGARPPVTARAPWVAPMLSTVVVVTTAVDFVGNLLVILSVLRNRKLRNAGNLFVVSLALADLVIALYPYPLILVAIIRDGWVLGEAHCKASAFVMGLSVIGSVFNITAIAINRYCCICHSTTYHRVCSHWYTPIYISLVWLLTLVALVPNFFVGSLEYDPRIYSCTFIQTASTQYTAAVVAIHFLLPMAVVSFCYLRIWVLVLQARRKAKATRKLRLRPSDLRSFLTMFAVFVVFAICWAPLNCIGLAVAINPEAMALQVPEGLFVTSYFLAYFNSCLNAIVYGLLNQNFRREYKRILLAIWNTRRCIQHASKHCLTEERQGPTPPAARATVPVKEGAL

C3H-f+/+ mice [3] = assay: Scotopic; format: in vivo, mouse; settings: for effect on the melatonin-induced increase in the amplitude of the a- and b-wave: intravitreal antagonist, then melatonin i.p. 1 mg/kg; for amplitude of the a- and b-wave, compound alone: intravitreal injection alone, no melatonin
mouse photoreceptors = assay: Photoreceptor response; format: in vivo; settings: for mimicking of the photoreceptor response to melatonin (a-wave at 7 ms): intravitreal injection of the agent; for effect on the melatonin-induced photoreceptor response (a-wave at 7 ms): intravitreal injection of the agent plus melatonin
mouse MT2 receptor = target: T3, mouse MT2 receptor (Mus musculus, UniProt Q8CIQ6); assay: Competition of 2-[125I]iodo-melatonin binding at mouse MT2; settings: mouse MT2, membranes of HEK293 cells
T3 sequence (Q8CIQ6 1-364): B1 chain with L95P

mouse MT1 receptor = mouse MT1 receptor (Mus musculus, UniProt Q61184); assay: Competition of 2-[125I]iodo-melatonin binding at mouse MT1; settings: mouse MT1, membranes of HEK293 cells
MT2 = target: T4, MT2 (Mus musculus, UniProt Q8CIQ6); assay: Inositol phosphate production, HEK293T cells expressing MT2 alone; format: cell-based
T4 sequence (Q8CIQ6 1-364): B1 chain with L95P

MT1 [4] = target: T1, MT1; settings: HEK293T cells expressing MT1 alone
MT1/MT2 heteromers [5] = target: T2, MT1/MT2 heteromers
MT1 and MT2 receptors = MT1 and MT2 receptors (Mus musculus, UniProt Q61184+Q8CIQ6)
MT2-/- mice = assay: Scotopic; format: in vivo, mouse; settings: i.p. 1 mg/kg at ZT6, 1 h dark adaptation
MT1 [6] = target: T1, MT1; settings: HEK293T cells expressing MT1 alone, compared with MT1/MT2 heteromers
C3H-f+/+ mice [7] = settings: exogenous administration during the day, wild-type mice; cited from earlier work
[8] = target: wild-type MT1 receptor with the inactive MT2-P95L mutant (Mus musculus, UniProt Q61184); settings: cells coexpressing wild-type MT1 with inactive MT2-P95L mutant
[9] = target: B2; assay: FRET or BRET
[10] = target: B3; assay: FRET or BRET
FRET or BRET = target: the molecule itself; assay: FRET or BRET

MT1 and MT2 receptors, sequence (Q8CIQ6 whole entry, one chain of several): as above

- IC50 (MT1 [1]): 5.8 ± 7.7 nM
- IC50 (MT1/MT2 heteromers [2]): 4 ± 3.5 nM
- effect on the melatonin-induced increase in the amplitude of the a- and b-wave (C3H-f+/+ mice [3]): prevented the increase
- amplitude of the a- and b-wave, compound alone (C3H-f+/+ mice [3]): did not produce any significant changes
Molecule: CCC(=O)N[C@@H]1Cc2ccccc2[C@H](c2ccccc2)C1 (relative stereo) [4P-PDOT, cis-4-Phenyl-2-propionamidotetralin]

Molecule: Cl.Cl.O=S(=O)(NCCNC/C=C/c1ccc(Br)cc1)c1cccc2cnccc12 [H89, H-89 dihydrochloride hydrate]
- mimicking of the photoreceptor response to melatonin (a-wave at 7 ms) (mouse photoreceptors): did not mimic
- effect on the melatonin-induced photoreceptor response (a-wave at 7 ms) (mouse photoreceptors): did not affect

- Ki (mouse MT2 receptor): 0.052 ± 0.015 nM
- amplitude of the a- or b-wave (C3H-f+/+ mice [3]; intravitreal 50 nM (MT2-selective concentration), C3H-f+/+ mice): did not increase
- amplitude of the a- and b-wave (C3H-f+/+ mice [3]; intravitreal 5 μM (activates MT1 and MT2), C3H-f+/+ mice): significantly increased
- Ki (mouse MT1 receptor): 73 ± 23 nM
Molecule: CCCC(=O)NCCc1c2n(c3ccc(OC)cc13)Cc1ccccc1-2 [IIK7]

Molecule: Nc1ncnc2c1nc(Br)n2[C@@H]1O[C@@H]2COP(=O)(O)O[C@H]2[C@H]1O [8-br-cAMP, 8-bromoadenosine 3′,5′-cyclic monophosphate]
- effect on the melatonin-induced photoreceptor response (a-wave at 7 ms) (mouse photoreceptors): had no effect

- effect on the melatonin-induced increase in the amplitude of the a- and b-wave (C3H-f+/+ mice [3]): prevented the increase
- amplitude of the a- and b-wave, compound alone (C3H-f+/+ mice [3]): did not produce any significant changes
Molecule: CC(=O)NCCc1c(Cc2ccccc2)[nH]c2ccccc12 [luzindole]

Molecule: Cl.NC(CSSCC(N)C(=O)N1CCn2cc(-c3ccccc3)nc2C1CC1CCCCC1)C(=O)N1CCn2cc(-c3ccccc3)nc2C1CC1CCCCC1 (stereo not drawn) [BIM 46187, 7-[2-amino-1-oxo-3-thio-propyl]-8-cyclohexylmethyl-2-phenyl-5,6,7,8-tetrahydro-i midazo-[1,2a]-pyrazine dimer, hydrochloride]
- effect on the melatonin-induced photoreceptor response (a-wave at 7 ms) (mouse photoreceptors): inhibited

Molecule: COc1ccc2[nH]cc(CCNC(C)=O)c2c1 [melatonin]
- EC50 (MT2): 51 nM
- inositol phosphate production, result in words (MT2; HEK293T cells expressing MT2 alone): unable to modulate this pathway
- inositol phosphate production, result in words (MT1 [4]): inactive; also recorded: only at supra-physiological melatonin amount
- PKC activity (MT1/MT2 heteromers [5]; HEK293T cells expressing MT1/MT2 heteromers, increasing concentrations): dose-dependently increased
- PKC activity with coexpressed MT2-P95L (MT1/MT2 heteromers [5]; MT1/MT2 heteromers plus dominant negative MT2-P95L mutant, 100 nM melatonin): potently inhibited
- inhibition of cAMP production (MT1 and MT2 receptors): not impaired but rather improved
- changes in the dark-adapted ERG (MT2-/- mice): did not produce any changes
- PKC activity (MT1 [6]): less potently
- photoreceptor response (a-wave at 7 ms) (mouse photoreceptors; exogenous melatonin, ZT 6): significantly increased
- amplitudes of a- and b-waves of the scotopic ERG (C3H-f+/+ mice [7]): increases the amplitudes
- inositol phosphate production, result in words [8]: completely abolished

Molecule: CCCCCCCCCCCCCC(=O)O[C@@H]1[C@@H](C)[C@@]2(O)[C@@H](C=C(CO)C[C@]3(O)C(=O)C(C)=C[C@@H]23)[C@@H]2C(C)(C)[C@]12OC(C)=O [PMA, Phorbol 12-myristate 13-acetate]
- mimicking of the photoreceptor response to melatonin (a-wave at 7 ms) (mouse photoreceptors): mimicked
- effect on the melatonin-induced photoreceptor response (a-wave at 7 ms) (mouse photoreceptors): significantly reduced

- block of the effect of exogenous melatonin on photoreceptors (mouse photoreceptors; intravitreal PKC inhibitor plus melatonin): about 40%
Molecule: CN1CCCC1CCn1cc(C2=C(c3c[nH]c4ccccc34)C(=O)NC2=O)c2ccccc21 (stereo not drawn) [Bisl, Bisindolylmaleimide II]

Molecule: B1
- BRET50 [9]: 1.52
- BRET50 [10]: 3.48
- BRET50 (FRET or BRET): 2.61

Molecule: B2
- BRET50 [10]: 1.67

Molecule: B3
- BRET50 (FRET or BRET): 0.71
